Source: patent US20250011725A1, “TISSUE-[…] CERAMIC TEMPLATE AND USES THEREOF” (Osteogene Bio Inc., priority 2023, published 2025)

Key:
Assay type in all cases: cell-based
[1] = tested on: co-cultured osteoblast precursor MC3T3 and osteosarcoma cells; assay: survival index of co-cultured cells after doxorubicin, 2D static culture on culture plate without PCT; settings: 0.5 mg/ml doxorubicin
Excerpt: (§1) FIG. 37 depicts comparison of survival index of co-cultured cells onto a culture plate for 2D static culture without a porous ceramic template (PCT), 3D static culture using a PCT, and 3D dynamic culture using a PCT after treated with doxorubicin (DOX: therapeutic drug) for designated time. In this example, osteoblast precursor MC3T3 with 2.5×10^5 cell population and osteosarcoma with 1×10^5 cell population are deployed onto a 12 well culture plate for the 2D static culture. 2.5×10^5 MC3T3 cell and 1×10^5 osteosarcoma are also seeded onto a PCT that is placed in a 12 well culture plate for the 3D static culture. For the 3D dynamic culture, 2.5×10^5 MC3T3 cell and 1×10^5 osteosarcoma were seeded onto a PCT and held for two days under static culture condition, then relocated into a culture column and subjected to dynamic culture with doxorubicin (therapeutic agent) using a peristaltic perfusion pump. […] In this regard, the 3D dynamic culture system is considered an effective alternative method of mimicking in vivo cancer model for performing a therapeutic agent test and/or screening.

[2] = tested on: co-cultured osteoblast precursor MC3T3 and osteosarcoma cells; assay: survival index of co-cultured cells after doxorubicin, 3D static culture using a PCT; settings: 3D static culture on PCT, 0.5 mg/ml doxorubicin
Excerpt: as §1

[3] = tested on: co-cultured osteoblast precursor MC3T3 and osteosarcoma cells; assay: survival index of co-cultured cells after doxorubicin, 3D dynamic culture using a PCT (perfusion bioreactor)
Excerpt: FIG. 33 depicts a bioreactor system suitable for performing a therapeutic agent treatment test according to embodiments of the present disclosure. Reference numeral 902 represents a co-cultured 3D cancer model platform 902 including a PCT 101 (such as the one resulting from the co-culturing discussed above in connection with FIGS. 32A and 32B). The 3D cancer model platform 902 is inserted into a culture column 903 for dynamic therapeutic agent treatment. The culture column 903 is connected with a medium vessel 904 that is filled with a medium in which a therapeutic agent 901 is dissolved. Afterwards, a dynamic therapeutic agent treatment is employed for up to, but not limited to, about seven days. In an exemplary embodiment, the therapeutic agent 901 includes Doxorubicin with a concentration of about 0.5 mg/ml. However, the present disclosure is suitable for cancer treatment with various therapeutic agents including but not limited to Cisplatin, Methotrexate, Ifosfamide, Actinomycin D, Bleomycin, Vincristine, Cyclophosphamide, Paclitaxel, Carboplatin, or a combination of two more of the foregoing agents. In an exemplary embodiment, a flow rate of the therapeutic agent 901 medium into the culture column 903 is about 5 ml/min for about five minutes per day. […]

SMILES: COc1cccc2c1C(=O)c1c(O)c3c(c(O)c1C2=O)C[C@@](O)(C(=O)CO)C[C@@H]3O[C@H]1C[C@H](N)[C@H](O)[C@H](C)O1 [doxorubicin]
- survival index compared to control [1]: significant reduction
- survival index compared to control [2]: significant reduction
- reduction of survival index compared to control ([3]; 3D dynamic culture on PCT, 0.5 mg/ml doxorubicin, 5 ml/min flow rate for five minutes per day, three days): not significant
- cell survival index, 3D dynamic culture in comparison with 3D static culture ([3]; after doxorubicin treatment): significantly higher
